According to patent US20240262803A1, “COMPOUNDS, COMPOSITIONS AND METHODS OF TREATING DISORDERS” (Chungdu Anticancer Bioscience Ltd, priority 2021, published 2024):
Like-named read-outs stand apart in the source and are kept apart here.

Legend:
Type in all cases: cell-based
[1] = test system: colon cancer cell line SW460; assay: MTT assay of cellular proliferation, SW460; conditions: Homo sapiens, SW480; read-out: EC50: Concentration that inhibits 50% of proliferation
Method: (§1) Six lung cancer cell lines (NCI-H23, NCI-H460, NCI-H596, NCI-H2170, Calu-6 and A549), two colon cancer cell lines (HCT116 and SW460), one breast cancer cell line MDA-MB-231, one gastric cancer cell line NCI-N87, one prostate cancer cell line DU145, one cervical cancer cell line Hela, and one glioblastoma cell line T98G were obtained from ATCC. The T2 HCC cell line was derived from a mouse liver cancer model initiated by a transgene of MYC (Reference). All cell lines were cultured in DMEM (Gibco, Cleveland, TN, USA) supplemented with 5% fetal bovine serum (Gibco), penicillin (100 U/mL)-streptomycin (100 μg/mL) (Gibco, Cat. No. 15140-122), 2 mM L-glutamine (Gibco, 200 mM solution, Cat. No. 25030081), and 1 mM sodium pyruvate (Gibco, 100 mM solution, Cat. No. 11360070) at 37° C. in a humidified incubator that was maintained at 5% CO2.
(§2) The MTT assay measures cellular metabolic activity as a proxy for cell viability and involves the conversion of the water-soluble yellow dye MTT [3-(4,5-dimethylthiazol-2-yl)-2,5-diphenyltetrazolium bromide] into an insoluble purple formazan by the action of mitochondrial reductase. Formazan is then solubilized and its concentration is determined by measuring the optical density (OD) value at a wavelength of 570 nm. The value is in proportional to the number of live cells with excellent linearity up to ˜10^6 cells per well. The MTT assay was used to determine the EC50 value, the concentration of a compound that leads to 50% inhibition of cellular proliferation. Briefly, cells were split when growing to the mid-Log phase. Cells in 100 μL of culture medium were seeded into each well of 96-well microplates and cultivated for 15˜24 hours to reach a confluence of 20˜30% and were then exposed to drugs at concentrations ranging from 1 nM to 10 μM. At the endpoint, 20 μL of a MTT stock solution in DMSO (5 mg/mL) was added to each well that contains […] of DMEM. The microplates were left in the cell culture incubator for 3˜4 h before subjected to solubilization and determination of formazan at A570 in a microplate reader (BioTek ELX808iu). […] Therefore, these compounds might hold a broad utility in the treatment of a large variety of human malignancies.

[2] = test system: gastric cancer cell line NCI-N87; assay: Minimal effective concentration that elicits polyploidy, NCI-N87; conditions: Homo sapiens, read-out: MECP: Minimal effective concentration that elicits polyploidy
[3] = test system: lung cancer cell line NCI-H23; assay: Minimal effective concentration that elicits polyploidy, NCI-H23; conditions: Homo sapiens, read-out: MECP: Minimal effective concentration that elicits polyploidy
[4] = test system: gastric cancer cell line NCI-N87; assay: MTT assay of cellular proliferation, NCI-N87; conditions: Homo sapiens, read-out: EC50: Concentration that inhibits 50% of proliferation
Method: as §1, §2

[5] = test system: colon cancer cell line HCT116; assay: MTT assay of cellular proliferation, HCT116; conditions: Homo sapiens, HCT-116, read-out: EC50: Concentration that inhibits 50% of proliferation
Method: as §1, §2

[6] = test system: cervical cancer cell line Hela; assay: MTT assay of cellular proliferation, Hela; conditions: Homo sapiens, read-out: EC50: Concentration that inhibits 50% of proliferation
Method: as §1, §2

[7] = test system: liver cancer cell line T2 HCC; assay: MTT assay of cellular proliferation, T2 HCC; conditions: Mus musculus, read-out: EC50: Concentration that inhibits 50% of proliferation
Method: as §1, §2

[8] = test system: colon cancer cell line HCT116; assay: Minimal effective concentration that elicits polyploidy, HCT116; conditions: Homo sapiens, HCT-116, read-out: MECP: Minimal effective concentration that elicits polyploidy
[9] = test system: lung cancer cell line NCI-H23; assay: MTT assay of cellular proliferation, NCI-H23; conditions: Homo sapiens, read-out: EC50: Concentration that inhibits 50% of proliferation
Method: as §1, §2

[10] = test system: breast cancer cell line MDA-MB-231; assay: Minimal effective concentration that elicits polyploidy, MDA-MB-231; conditions: Homo sapiens, read-out: MECP: Minimal effective concentration that elicits polyploidy
[11] = test system: liver cancer cell line T2 HCC; assay: Minimal effective concentration that elicits polyploidy, T2 HCC; conditions: Mus musculus, read-out: MECP: Minimal effective concentration that elicits polyploidy
[12] = test system: cervical cancer cell line Hela; assay: Minimal effective concentration that elicits polyploidy, Hela; conditions: Homo sapiens, read-out: MECP: Minimal effective concentration that elicits polyploidy
SW480 = assay: Minimal effective concentration that elicits polyploidy, SW480; conditions: Homo sapiens, read-out: MECP: Minimal effective concentration that elicits polyploidy
RPEMYC^H2B-GFP cells [13] = assay: Mechanism-informed phenotypic screening assay (mitotic arrest, polyploidy; GE IN-Cell Analyzer 2000); conditions: 20 nM to 20 μM, 24, 48 or 72 hours, read-out: Min. Effective conc. for polyploidy (≥5%)
Method in brief: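 RPEMYC^H2B-GFP cells expressing Histone 2B-EGFP were treated with compounds at 20 nM to 20 μM. Mitotic arrest and DNA content were imaged at 24, 48 or 72 h. Minimal effective concentrations eliciting polyploidy are given as letter bins.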

[14] = test system: lung cancer cell line A549; assay: Minimal effective concentration that elicits polyploidy, A549; conditions: Homo sapiens, read-out: MECP: Minimal effective concentration that elicits polyploidy
[15] = test system: breast cancer cell line MDA-MB-231; assay: MTT assay of cellular proliferation, MDA-MB-231; conditions: Homo sapiens, read-out: EC50: Concentration that inhibits 50% of proliferation
Method: as §1, §2

RPEMYC^H2B-GFP cells [16] = assay: Mechanism-informed phenotypic screening assay (mitotic arrest, polyploidy; GE IN-Cell Analyzer 2000); conditions: 20 nM to 20 μM, 24, 48 or 72 hours, read-out: Mitotic Arrest (≥5%)
[17] = test system: lung cancer cell line A549; assay: MTT assay of cellular proliferation, A549; conditions: Homo sapiens, read-out: EC50: Concentration that inhibits 50% of proliferation
Method: as §1, §2

| Compound | EC50 [1] [nM] | minimal effective concentration [2] [µM] | minimal effective concentration [3] [µM] | EC50 [4] [nM] | EC50 [5] [nM] | EC50 [6] [nM] | EC50 [7] [nM] | minimal effective concentration [8] [µM] | EC50 [9] [nM] | minimal effective concentration [10] [µM] | minimal effective concentration [11] [µM] | minimal effective concentration [12] [µM] | minimal effective concentration (SW480) [µM] | minimal effective concentration (RPEMYC^H2B-GFP cells [13]) [µM] | minimal effective concentration [14] [µM] | EC50 [15] [nM] | minimal effective concentration (RPEMYC^H2B-GFP cells [16]) [µM] | EC50 [17] [nM] |
| --- | --- | --- | --- | --- | --- | --- | --- | --- | --- | --- | --- | --- | --- | --- | --- | --- | --- | --- |
| CNC(=O)c1cc(OC)cc(Oc2ncccc2-c2ccnc(OC)c2)c1 [Compound 27, 3-methoxy-5-((2′-methoxy-[3,4′-bipyridin]-2-yl)oxy)-N-methylbenzamide] | 1 to 1000 | 0.001 to 1 | 0.001 to 1 | 1 to 1000 | 1 to 1000 | 1 to 1000 | 1 to 1000 | 0.001 to 1 | 1 to 1000 | 0.001 to 1 | 0.001 to 1 | 0.001 to 1 | 0.001 to 1 | 1 | 0.001 to 1 | 1 to 1000 | 1 | 1 to 1000 |
| CCOc1cc(Oc2ncccc2-c2ccnc(OC)c2)cc(C(=O)NC)c1 [Compound 28, 3-ethoxy-5-((2′-methoxy-[3,4′-bipyridin]-2-yl)oxy)-N-methylbenzamide] | 1 to 1000 | 0.001 to 1 | 0.001 to 1 | 1 to 1000 | 1 to 1000 | 1 to 1000 | 1 to 1000 | 0.001 to 1 | 1 to 1000 | 0.001 to 1 | 0.001 to 1 | 0.001 to 1 | 0.001 to 1 | 1 | 0.001 to 1 | 1 to 1000 | 1 | 1 to 1000 |
| COc1cc(Oc2ncccc2-c2ccnc(OC)c2)cc(C(F)(F)F)c1 [Compound 30, 2′-methoxy-2-(3-methoxy-5-(trifluoromethyl)phenoxy)-3,4′-bipyridine] | 1 to 1000 | 0.001 to 1 | 0.001 to 1 | 1 to 1000 | 1 to 1000 | 1 to 1000 | 1 to 1000 | 0.001 to 1 | 1 to 1000 | 0.001 to 1 | 0.001 to 1 | 0.001 to 1 | 0.001 to 1 | 1 | 0.001 to 1 | 1 to 1000 | 1 | 1 to 1000 |
| COc1cc(Oc2ncccc2-c2ccnc(OC)c2)cc(-n2cccn2)c1 [Compound 31, 2′-methoxy-2-(3-methoxy-5-(1H-pyrazol-1-yl)phenoxy)-3,4′-bipyridine] | 1 to 1000 | 0.001 to 1 | 0.001 to 1 | 1 to 1000 | 1 to 1000 | 1 to 1000 | 1 to 1000 | 0.001 to 1 | 1 to 1000 | 0.001 to 1 | 0.001 to 1 | 0.001 to 1 | 0.001 to 1 | 1 | 0.001 to 1 | 1 to 1000 | 1 | 1 to 1000 |
